Data on 24 molecules can be found in US6794379B2, “CXCR3 antagonists” (Tularik Inc., priority 2001, dated 2004).

Where a name gives a salt, the structure may show the parent alone.

`COCCN(C(=O)Cc1ccc(-c2ccccc2)cc1)C(C)c1nc2ccccc2c(=O)n1-c1ccc(F)cc1` (stereo not drawn) [Compound 1.17] registered a melting point of 153.8 °C.
On to `CCOc1ccc(-n2c([C@@H](C)N(Cc3cccnc3)C(=O)Cc3ccc(OCC(F)(F)F)cc3)nc3ccccc3c2=O)cc1` [Compound 3.28], for which the melting point was in the range of 103 to 104 °C.
For `C[C@H](c1nc2ccccc2c(=O)n1-c1ccc(F)cc1)N(Cc1nccs1)C(=O)Cc1ccc(C(F)(F)F)cc1`, the melting point is 173 to 174 °C.
In turn, `CCOCCN(C(=O)Cc1ccc(C(F)(F)F)c(F)c1)[C@H](C)c1nc2ccccc2c(=O)n1-c1ccc(OCC)cc1` [Compound 3.27] came in with a melting point of 146 to 148 °C.
The molecule `CCOCCN(C(=O)Cc1ccc(F)c(F)c1F)C(C)c1nc2ccccc2c(=O)n1-c1ccc(OCC)cc1` (stereo not drawn) [Compound 3.32] returned a melting point of 146.3 °C.
`CCOCCN(C(=O)Cc1ccc(-c2ccccc2)cc1)C(C)c1nc2ccccc2c(=O)n1-c1ccc(F)cc1` (stereo not drawn) [Compound 1.19] returned a melting point of 150.6 °C.
In turn, `CCOCCN(C(=O)Cc1cccc(C(F)(F)F)c1)C(C)c1nc2ccccc2c(=O)n1-c1ccc(OCC)cc1` (stereo not drawn) [Compound 9.08] gave a melting point of 157.9 °C.
As for `Cc1ccc(CC(=O)N(CCN(C)C)C(C)c2nc3ccccc3c(=O)n2-c2ccc(F)cc2)cc1` (stereo not drawn), the melting point is 188.3 °C.
As for `CCOc1ccc(-n2c(C(C)N(Cc3ccccn3)C(=O)Cc3ccc(C(F)(F)F)cc3)nc3ccccc3c2=O)cc1` (stereo not drawn) (as salt: hydrochloride) [Compound 3.04, 2-((N-2-Picolyl)-N-(4-trifluoromethylphenylacetyl)-1-aminoethyl)-3-(4-ethoxyphenyl) -3H-quinazoline-4-one], the figure is 167.5 °C; as for `CC(=O)CN(C(=O)Cc1ccc(C(F)(F)F)cc1)[C@H](C)c1nc2ccccc2c(=O)n1-c1ccc(F)cc1` [Compound 3.22], 220 to 221 °C; as for `CC(c1nc2ccccc2c(=O)n1-c1ccc(F)cc1)N(CCN(C)C)C(=O)Cc1ccccc1` (stereo not drawn), 153 °C.
As for `COc1ccc(-n2c(C(C)N(CCN(C)C)C(=O)Cc3ccc(OCc4ccccc4)cc3)nc3ccccc3c2=O)cc1` (stereo not drawn) [Compound 1.36], the melting point was found to be 61.3 °C.
As for `CCOCCN(C(=O)Cc1ccc(-c2ccccc2)cc1)C(C)c1nc2ccccc2c(=O)n1-c1ccc(OCC)cc1` (stereo not drawn), the figure is 98.1 °C; as for `CC(c1nc2ccccc2c(=O)n1-c1ccc(F)cc1)N(CCN(C)C)C(=O)c1ccc(-c2ccccc2)cc1` (stereo not drawn) [Compound 1.06], 147.3 °C.
With `CCOCCN(C(=O)Cc1ccc(F)c(C(F)(F)F)c1)[C@H](C)c1nc2ccccc2c(=O)n1-c1ccc(OCC)cc1` [Compound 3.26] the figure was 137 to 138 °C.
`C[C@H](c1nc2ccccc2c(=O)n1-c1ccc(F)cc1)N(CCOCC(F)(F)F)C(=O)Cc1ccc(C(F)(F)F)cc1` [Compound 9.04] showed a melting point of 156.2 °C.
Molecule `CCOCCN(C(=O)Cc1cc(C(F)(F)F)cc(C(F)(F)F)c1)[C@H](C)c1nc2ccccc2c(=O)n1-c1ccc(OCC)cc1` [Compound 3.25] returned a melting point of 57 to 60 °C.
As for `COc1ccc(-n2c(C(C)N(CCN3CCCC3)C(=O)Cc3ccc(-c4ccccc4)cc3)nc3ccccc3c2=O)cc1` (stereo not drawn) [Compound 1.34], the figure is 116.3 °C; as for `CCOCCN(C(=O)Cc1ccc(OC(F)(F)F)cc1)C(C)c1nc2ccccc2c(=O)n1-c1ccc(OCC)cc1` (stereo not drawn) [Compound 3.30], 153 °C.
Molecule `COc1ccc(-n2c(C(C)N(CCN3CCCC3)C(=O)Cc3ccc(-c4ccccc4)cc3)nc3ccccc3c2=O)cc1F` (stereo not drawn) [Compound 1.33] returned a melting point of 96.9 °C.
Molecule `C#Cc1ccc(-n2c(C(C)N(CCOC)C(=O)Cc3ccc(-c4ccccc4)cc3)nc3ccccc3c2=O)cc1` (stereo not drawn) [Compound 3.12, 2-((N-2-Methoxyethyl)-N-(4-phenylphenylacetyl)-1-aminoethyl)-3-(4-ethynylphenyl) -3H-quinazoline-4-one] registered a melting point of 73.3 °C.
In turn, `C[C@H](c1nc2ccccc2c(=O)n1-c1ccc(F)cc1)N(CCOCC(F)(F)F)C(=O)Cc1ccc(-c2ccccc2)cc1` [Compound 9.03] displayed a melting point of 167.9 °C.
As for `CC(c1nc2ccccc2c(=O)n1-c1ccc(F)cc1)N(Cc1cccnc1)C(=O)Cc1ccc(C(F)(F)F)cc1` (racemic), the figure is 167 °C; as for `CCOc1ccc(-n2c(C(C)N(Cc3cccnc3)C(=O)Cc3ccc(F)c(F)c3)nc3ccccc3c2=O)cc1` (stereo not drawn) [Compound 3.34], 75.5 °C.

As usually defined, the melting point is the temperature of the solid-liquid transition.
